Our source for the IC50 values is ChEMBL document CHEMBL1148113, “New cytotoxic monotetrahydrofuran annonaceous acetogenins from Annona muricata” (J Nat Prod, 2002).

Converted amounts (≈) assume the structure as drawn.

In assay [1] the test system is HepG2. The assay is described as follows: Cytotoxicity against human HepG2 cells after 3 days. Format: functional, cell-based. The following applies: HepG2, 72 h.
Assay [2] can be described thus: Cytotoxicity against human HepG2(2.2.15) cells after 3 days. Format: functional, cell-based. The note with it: HepG2 2.2.15, 72 h.

With `CCCCCCCCCCCC[C@@H](O)[C@H]1CC[C@@H]([C@@H](O)CCCCCCC(O)CCCCC[C@@H](O)CC2=C[C@H](C)OC2=O)O1` (stereo partly drawn), the IC50 was 0.298 µg/mL (≈ 0.477 µM) in assay [1] and 0.0162 µg/mL (≈ 0.0259 µM) in assay [2].
On to `CCC[C@H](O)[C@@H](O)CCCCCCCC[C@@H](O)[C@H]1CC[C@H](CCCCCCCCCC[C@@H](O)CC2=C[C@H](C)OC2=O)O1` [ANNOCATALIN], for which the IC50 in assay [1] is 5.7 µg/mL (≈ 9.55 µM); in assay [2], 0.00348 µg/mL (≈ 0.00583 µM).
As for `CCCCCCCCCCCC[C@@H](O)[C@H]1CC[C@@H]([C@@H](O)CCCCC(=O)CCCCCCCC2=C[C@H](C)OC2=O)O1` [COROSSOLONE], the IC50 came out at 0.165 µg/mL (≈ 0.285 µM) in assay [1] and 0.0476 µg/mL (≈ 0.0822 µM) in assay [2].
As to `COc1cccc2c1C(=O)c1c(O)c3c(c(O)c1C2=O)C[C@@](O)(C(=O)CO)C[C@@H]3O[C@H]1C[C@H](N)[C@H](O)[C@H](C)O1` [DOXORUBICIN], the IC50 worked out at 0.241 µg/mL (≈ 0.443 µM) in assay [1] and 0.45 µg/mL (≈ 0.828 µM) in assay [2].
Take `CCCCCC(O)C(O)CCCCCC[C@@H](O)[C@H]1CC[C@H](CCCCCCCCCC[C@@H](O)CC2=C[C@H](C)OC2=O)O1` (stereo partly drawn) [MURICIN A]: the half-inhibitory concentration (IC50) in assay [1] was 5.04 µg/mL (≈ 8.44 µM); in assay [2], 0.00513 µg/mL (≈ 0.00859 µM).
For the molecule `CCCCCC(O)C(O)CCCCCC[C@H](O)[C@@H]1CC[C@H](CCCCCCCCCC[C@H](O)CC2=C[C@H](C)OC2=O)O1` (stereo partly drawn) [MURICIN B], the IC50 in assay [1] was 1.78 µg/mL (≈ 2.98 µM); in assay [2], 0.00429 µg/mL (≈ 0.00719 µM).
For `CCCCCCCC(O)C(O)CC[C@H](O)[C@@H]1CC[C@H](CCCCCCCCCCCC[C@@H](O)CC2=C[C@H](C)OC2=O)O1` (stereo partly drawn) [MURICIN C] the same measures were 0.499 µg/mL (≈ 0.836 µM) and 0.00387 µg/mL (≈ 0.00648 µM).
For the molecule `CCCCCCC[C@H](O)[C@@H](O)CCCC[C@@H](O)[C@H]1CC[C@H](CCCCCCCCCCCCC2=C[C@H](C)OC2=O)O1` [MURICIN H], the IC50 in assay [1] was found to be 0.0951 µg/mL (≈ 0.164 µM); in assay [2], 0.0118 µg/mL (≈ 0.0203 µM).
Regarding `CCCCC/C=C\CC[C@H](O)[C@@H](O)CCCC[C@@H](O)[C@H]1CC[C@H](CCCCCCCCCCCCC2=C[C@H](C)OC2=O)O1` [MURICIN I], the half-maximal inhibitory concentration (IC50) in assay [1] turned out to be 0.0509 µg/mL (≈ 0.0839 µM); in assay [2], 0.222 µg/mL (≈ 0.366 µM).
